We go through one compound from patent publication US12391683B2, “Therapeutic compounds and methods” (Actio Biosciences, Inc., priority 2022, dated 2025).

By EC50 is commonly meant the concentration giving half of the maximal effect. Usually IC50 stands for the point on the concentration scale where inhibition reaches its midpoint.

One data set addresses T1, TRPM5 channels (Homo sapiens, UniProt Q9NZQ8).
T1 construct: expressed in transfected cells; host or cells: CHO
T1 sequence (Q9NZQ8 1-1165): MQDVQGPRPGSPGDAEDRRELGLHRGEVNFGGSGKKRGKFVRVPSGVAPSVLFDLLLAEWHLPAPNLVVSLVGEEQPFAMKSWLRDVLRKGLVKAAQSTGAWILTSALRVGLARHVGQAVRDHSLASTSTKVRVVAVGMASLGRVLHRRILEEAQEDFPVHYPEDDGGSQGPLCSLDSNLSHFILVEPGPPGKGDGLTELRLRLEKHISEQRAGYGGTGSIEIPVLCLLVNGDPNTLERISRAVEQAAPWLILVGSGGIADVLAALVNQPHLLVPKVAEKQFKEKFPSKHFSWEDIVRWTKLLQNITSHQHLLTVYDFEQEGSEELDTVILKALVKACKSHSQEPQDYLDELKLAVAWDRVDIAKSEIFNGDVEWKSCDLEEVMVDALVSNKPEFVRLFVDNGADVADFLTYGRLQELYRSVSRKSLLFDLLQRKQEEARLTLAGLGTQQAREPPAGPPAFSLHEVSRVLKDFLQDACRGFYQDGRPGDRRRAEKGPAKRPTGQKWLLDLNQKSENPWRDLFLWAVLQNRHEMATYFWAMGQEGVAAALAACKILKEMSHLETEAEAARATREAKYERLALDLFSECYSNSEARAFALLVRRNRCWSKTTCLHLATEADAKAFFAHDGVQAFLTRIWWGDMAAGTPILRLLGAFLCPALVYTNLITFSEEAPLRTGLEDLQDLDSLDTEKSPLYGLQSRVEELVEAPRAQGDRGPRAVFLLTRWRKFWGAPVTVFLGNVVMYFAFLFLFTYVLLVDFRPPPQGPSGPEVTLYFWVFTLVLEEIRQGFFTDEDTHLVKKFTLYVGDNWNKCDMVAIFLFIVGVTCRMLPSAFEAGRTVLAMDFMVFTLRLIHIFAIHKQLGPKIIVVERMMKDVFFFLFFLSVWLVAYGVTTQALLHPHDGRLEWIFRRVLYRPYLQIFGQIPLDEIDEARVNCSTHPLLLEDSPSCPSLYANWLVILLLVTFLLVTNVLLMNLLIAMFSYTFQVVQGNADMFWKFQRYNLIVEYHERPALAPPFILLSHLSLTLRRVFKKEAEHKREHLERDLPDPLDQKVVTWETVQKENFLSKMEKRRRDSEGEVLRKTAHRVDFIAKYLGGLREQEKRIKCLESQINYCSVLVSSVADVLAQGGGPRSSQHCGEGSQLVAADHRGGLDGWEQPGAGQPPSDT
Put plainly: TRP Family FLIPR Assay, TRPM5. In kind it is cell-based. The note with it: CHO cells. How it is done: (§1) The compound of Example 5 was tested for selectivity against a panel of Human TRP family ion channels in a TRP Family FLIPR Assay as described below. • 1. TRPC3 channels (human TRPC3 variant 1 gene, expressed in HEK293 cells). • 2. TRPC4 channels (human TRPC4 gene, expressed in HEK293 cells). • 3. TRPC5 channels (human TRPC5 gene, expressed in HEK293 cells). • 4. TRPC6 channels (human TRPC6 gene, expressed in HEK293 cells). • 5. TRPM2 channels (human TRPM2 gene, transiently expressed in HEK293 cells). • 6. TRPM3 channels (human TRPM3 gene, transiently expressed in HEK293 cells). • 7. TRPM4 channels (human TRPM4 gene, expressed in CHO cells). • 8. […]
(§2) Data acquisition was performed via the FLIPR Control software supplied with the FLIPR System (MDS-AT) and data was analyzed using Microsoft Excel (Microsoft Corp., Redmond, WA) or GraphPad Prism. […]
(§3) [formula] where Base is the response at low concentrations of test article, Max is the maximum response at high concentrations, xhalf the EC50, or IC50, the concentration of test article producing either half-maximal activation or inhibition, and rate is the Hill coefficient. […] No assumptions about the fit parameters was made; the fit parameters were determined by the algorithm.
(§4) The effect of each test article was evaluated at eight (8) concentrations: 0.003, 0.01, 0.03, 0.1, 0.3, 1, 3 and 10 μM, n≤4 wells/concentration). […]

The next data set concerns Hepatocytes. Put plainly: Hepatocytes predicted clearance, mouse.
For another data set, the target named is T2, TRPV5 channels (Homo sapiens, UniProt Q9NQA5).
T2 construct: expressed in transfected cells; host or cells: HEK293 (transient)
T2 sequence (Q9NQA5 whole entry): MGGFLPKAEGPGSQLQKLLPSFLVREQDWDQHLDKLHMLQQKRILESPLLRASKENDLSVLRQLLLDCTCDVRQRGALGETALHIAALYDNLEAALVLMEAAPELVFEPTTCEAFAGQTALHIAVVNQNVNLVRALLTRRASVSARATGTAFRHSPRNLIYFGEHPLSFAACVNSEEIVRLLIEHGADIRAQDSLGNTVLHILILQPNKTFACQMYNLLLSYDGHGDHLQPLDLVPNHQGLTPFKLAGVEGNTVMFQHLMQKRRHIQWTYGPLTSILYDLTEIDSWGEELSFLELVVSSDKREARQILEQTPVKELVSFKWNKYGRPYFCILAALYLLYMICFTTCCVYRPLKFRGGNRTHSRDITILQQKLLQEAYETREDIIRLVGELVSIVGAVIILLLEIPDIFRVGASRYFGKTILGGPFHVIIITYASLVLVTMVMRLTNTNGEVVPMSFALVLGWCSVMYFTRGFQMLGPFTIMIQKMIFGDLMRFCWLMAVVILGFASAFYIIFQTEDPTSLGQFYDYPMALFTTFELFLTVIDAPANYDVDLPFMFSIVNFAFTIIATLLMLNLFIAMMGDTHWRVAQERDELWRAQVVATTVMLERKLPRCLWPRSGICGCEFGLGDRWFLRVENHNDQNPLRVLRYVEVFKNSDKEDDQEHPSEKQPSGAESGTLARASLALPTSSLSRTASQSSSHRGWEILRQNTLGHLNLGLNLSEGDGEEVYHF
Put plainly: TRP Family FLIPR Assay, TRPV5. The data set is classed as cell-based. The note with it: antagonist mode; activated with 60 μM cadmium ion; HEK293 cells (transient); 0.003-10 μM; read-out: IC50 hTRPV5. How it is done:
as §1, §2, §3, §4

Take `CC(C)(O)c1cnc(N2C[C@@]3(CC[C@@H](F)[C@](C)(Cn4cnc5ccc(C#N)cc54)C3)OC2=O)cn1` (single isomer, unassigned) [Example 5]: the EC50 on TRPM5 channels (agonist mode, vs EMAX of Mg-ATP 33.3 μM, read-out: EC50 hTRPM5) is greater than 10 µM. In addition, the concentration for half-maximal inhibition (IC50) on TRPM5 channels (antagonist mode, activated with Mg-ATP 75 μM, 0.003-10 μM, read-out: IC50 hTRPM5) was greater than 10 µM; on TRPV5 channels, greater than 10 µM. The “Hepatocytes predicted clearance in mouse” value in the data set with Hepatocytes is on record as 0.77 L/h/kg.
